PubChem BioAssay (NCI)
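Compound exposure: 48 hours, 5 concentrations, 96-well plates. GI50 is the concentration that inhibits growth by half. TGI: concentration producing complete growth inhibition.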

Legend:
Test in all cases: DTP human tumour cell line panel, 48 h
UACC-257 melanoma = system: UACC-257 melanoma
MCF7 breast = system: MCF7 breast
LOX IMVI melanoma = system: LOX IMVI melanoma
SK-MEL-5 melanoma = system: SK-MEL-5 melanoma
A498 renal = system: A498 renal
IGROV1 ovarian = system: IGROV1 ovarian
K-562 leukemia = system: K-562 leukemia
HCT-15 colon = system: HCT-15 colon
BT-549 breast = system: BT-549 breast
HT29 colon = system: HT29 colon
MDA-MB-435 = system: MDA-MB-435
MOLT-4 leukemia = system: MOLT-4 leukemia
OVCAR-4 ovarian = system: OVCAR-4 ovarian
ACHN renal = system: ACHN renal
RPMI-8226 leukemia = system: RPMI-8226 leukemia
786-0 renal = system: 786-0 renal
A549 NSCLC = system: A549 NSCLC
SNB-19 CNS = system: SNB-19 CNS
SK-OV-3 ovarian = system: SK-OV-3 ovarian
TK-10 renal = system: TK-10 renal
HOP-62 NSCLC = system: HOP-62 NSCLC
OVCAR-5 ovarian = system: OVCAR-5 ovarian
KM12 colon = system: KM12 colon
UO-31 renal = system: UO-31 renal
HOP-92 NSCLC = system: HOP-92 NSCLC
SNB-75 CNS = system: SNB-75 CNS
SF-295 CNS = system: SF-295 CNS
SF-539 CNS = system: SF-539 CNS
T-47D breast = system: T-47D breast
HL-60(TB) leukemia = system: HL-60(TB) leukemia
CCRF-CEM leukemia = system: CCRF-CEM leukemia
HCC-2998 colon = system: HCC-2998 colon
MALME-3M melanoma = system: MALME-3M melanoma
SR leukemia = system: SR leukemia
RXF 393 renal = system: RXF 393 renal
NCI-H226 lung = system: NCI-H226 lung
UACC-62 melanoma = system: UACC-62 melanoma
CAKI-1 renal = system: CAKI-1 renal
NCI-H460 lung = system: NCI-H460 lung
SK-MEL-28 melanoma = system: SK-MEL-28 melanoma
M14 melanoma = system: M14 melanoma
MDA-MB-231 breast = system: MDA-MB-231 breast
PC-3 prostate = system: PC-3 prostate
HCT-116 colon = system: HCT-116 colon
SF-268 CNS = system: SF-268 CNS
SK-MEL-2 melanoma = system: SK-MEL-2 melanoma
SN12C renal = system: SN12C renal
OVCAR-8 ovarian = system: OVCAR-8 ovarian
DU-145 prostate = system: DU-145 prostate
SW-620 colon = system: SW-620 colon
NCI-H522 lung = system: NCI-H522 lung
COLO 205 colon = system: COLO 205 colon
U251 CNS = system: U251 CNS
NCI/ADR-RES ovarian = system: NCI/ADR-RES ovarian
OVCAR-3 ovarian = system: OVCAR-3 ovarian
HS 578T breast = system: HS 578T breast
NCI-H23 lung = system: NCI-H23 lung

## O=c1ccc2nc(-c3ccccc3)nn(-c3ccccc3)c-2c1
UACC-257 melanoma
  GI50: 1.56 µM
  TGI: 2.94 µM
MCF7 breast
  GI50: 1.11 µM
  TGI: 2.74 µM
LOX IMVI melanoma
  GI50: 2.08 µM
  TGI: 4.27 µM
SK-MEL-5 melanoma
  GI50: 3.71 µM
  TGI: 16.3 µM
A498 renal
  GI50: 18.1 µM
  TGI: 33.4 µM
IGROV1 ovarian
  GI50: 1.42 µM
  TGI: 3.47 µM
K-562 leukemia
  GI50: 0.353 µM
  TGI: 1.12 µM
HCT-15 colon
  GI50: 0.775 µM
  TGI: 2.43 µM
BT-549 breast
  GI50: 2.19 µM
  TGI: 4.43 µM
HT29 colon
  GI50: 1.8 µM
  TGI: 3.45 µM
MDA-MB-435
  GI50: 1.85 µM
  TGI: 4.17 µM
MOLT-4 leukemia
  GI50: 0.546 µM
  TGI: 1.97 µM
OVCAR-4 ovarian
  GI50: 1.5 µM
  TGI: 2.85 µM
ACHN renal
  GI50: 0.47 µM
  TGI: 1.44 µM
RPMI-8226 leukemia
  GI50: 2.02 µM
  TGI: 5.32 µM
786-0 renal
  GI50: 1.84 µM
  TGI: 3.36 µM
A549 NSCLC
  GI50: 9.26 µM
  TGI: 36.7 µM
SNB-19 CNS
  GI50: 16.9 µM
  TGI: 41.1 µM
SK-OV-3 ovarian
  GI50: 13.3 µM
  TGI: 26.6 µM
TK-10 renal
  GI50: 1.39 µM
  TGI: 2.7 µM
HOP-62 NSCLC
  GI50: 5.34 µM
  TGI: 26.1 µM
OVCAR-5 ovarian
  GI50: 2.6 µM
  TGI: 7.54 µM
KM12 colon
  GI50: 16.4 µM
  TGI: 37.5 µM
UO-31 renal
  GI50: 0.512 µM
  TGI: 0.992 µM
HOP-92 NSCLC
  GI50: 1.5 µM
  TGI: 2.93 µM
SNB-75 CNS
  GI50: 4.83 µM
  TGI: 11.3 µM
SF-295 CNS
  GI50: 13 µM
  TGI: 32.1 µM
SF-539 CNS
  GI50: 1.92 µM
  TGI: 3.76 µM
T-47D breast
  GI50: 0.485 µM
  TGI: 1.26 µM
HL-60(TB) leukemia
  GI50: 0.362 µM
  TGI: 1.24 µM
CCRF-CEM leukemia
  GI50: 0.274 µM
  TGI: 1.23 µM
HCC-2998 colon
  GI50: 5.13 µM
  TGI: 12.3 µM
MALME-3M melanoma
  GI50: 0.479 µM
  TGI: 1.67 µM
SR leukemia
  GI50: 0.309 µM
  TGI: 1.52 µM
RXF 393 renal
  GI50: 1.67 µM
  TGI: 3.06 µM
NCI-H226 lung
  GI50: 2 µM
  TGI: 4.21 µM
UACC-62 melanoma
  GI50: 1.84 µM
  TGI: 4.13 µM
CAKI-1 renal
  GI50: 1.5 µM
  TGI: 2.89 µM
NCI-H460 lung
  GI50: 6.63 µM
  TGI: 18.3 µM
SK-MEL-28 melanoma
  GI50: 1.63 µM
  TGI: 3.11 µM
M14 melanoma
  GI50: 1.67 µM
  TGI: 3.27 µM
MDA-MB-231 breast
  GI50: 1.88 µM
  TGI: 3.84 µM
PC-3 prostate
  GI50: 2.14 µM
  TGI: 5.71 µM
HCT-116 colon
  GI50: 0.79 µM
  TGI: 2.08 µM
SF-268 CNS
  GI50: 3.48 µM
  TGI: 13.5 µM
SK-MEL-2 melanoma
  GI50: 2.28 µM
  TGI: 4.45 µM
SN12C renal
  GI50: 1.77 µM
  TGI: 3.53 µM
OVCAR-8 ovarian
  GI50: 2.21 µM
  TGI: 5.59 µM
DU-145 prostate
  GI50: 1.92 µM
  TGI: 3.37 µM
SW-620 colon
  GI50: 1.65 µM
  TGI: 3.53 µM
NCI-H522 lung
  GI50: 0.462 µM
  TGI: 0.918 µM
COLO 205 colon
  GI50: 0.589 µM
  TGI: 1.8 µM
U251 CNS
  GI50: 5.78 µM
  TGI: 20.4 µM
NCI/ADR-RES ovarian
  GI50: 8.11 µM
  TGI: 48.4 µM
OVCAR-3 ovarian
  GI50: 1.01 µM
  TGI: 2.34 µM
HS 578T breast
  GI50: 2.65 µM
  TGI: 8.47 µM
NCI-H23 lung
  GI50: 2.26 µM
  TGI: 5.6 µM

## FC(F)(F)c1ccc2nc(-c3nc(-c4ccccc4)n4ccccc34)[nH]c2c1
UACC-257 melanoma
  GI50: 13.1 µM
  TGI: 46.2 µM
MCF7 breast
  GI50: 2.4 µM
  TGI: 21 µM
SK-MEL-5 melanoma
  GI50: 1.9 µM
  TGI: 5.55 µM
A498 renal
  GI50: 1.69 µM
  TGI: 5.85 µM
IGROV1 ovarian
  GI50: 4.03 µM
  TGI: 20.5 µM
K-562 leukemia
  GI50: 11 µM
  TGI: > 100 µM
HCT-15 colon
  GI50: 3.5 µM
  TGI: 22 µM
BT-549 breast
  GI50: 4.23 µM
  TGI: 63.4 µM
HT29 colon
  GI50: 3.47 µM
  TGI: 11.1 µM
MDA-MB-435
  GI50: 5.47 µM
  TGI: 31.6 µM
MOLT-4 leukemia
  GI50: 28.3 µM
  TGI: > 100 µM
OVCAR-4 ovarian
  GI50: 1.81 µM
  TGI: 3.71 µM
ACHN renal
  GI50: 2.23 µM
  TGI: 6.12 µM
RPMI-8226 leukemia
  GI50: 3.84 µM
  TGI: 36.9 µM
786-0 renal
  GI50: 1.92 µM
  TGI: 3.56 µM
A549 NSCLC
  GI50: 3.12 µM
  TGI: 11.1 µM
SNB-19 CNS
  GI50: 6.44 µM
  TGI: 20.8 µM
SK-OV-3 ovarian
  GI50: 1.86 µM
  TGI: 3.53 µM
TK-10 renal
  GI50: 2.85 µM
  TGI: 5.32 µM
HOP-62 NSCLC
  GI50: 2.46 µM
  TGI: 9.26 µM
OVCAR-5 ovarian
  GI50: 6.77 µM
  TGI: 47.2 µM
KM12 colon
  GI50: 5.11 µM
  TGI: > 100 µM
UO-31 renal
  GI50: 4.37 µM
  TGI: 18.6 µM
HOP-92 NSCLC
  GI50: 3.66 µM
  TGI: 17.4 µM
SNB-75 CNS
  GI50: 1.68 µM
  TGI: 3.94 µM
SF-295 CNS
  GI50: 3.85 µM
  TGI: 15.1 µM
SF-539 CNS
  GI50: 1.69 µM
  TGI: 3.38 µM
T-47D breast
  GI50: 1.71 µM
  TGI: 16.9 µM
HL-60(TB) leukemia
  GI50: 27.8 µM
  TGI: > 100 µM
CCRF-CEM leukemia
  GI50: 5.64 µM
  TGI: > 100 µM
HCC-2998 colon
  GI50: 5.98 µM
  TGI: 22.4 µM
MALME-3M melanoma
  GI50: 2.71 µM
  TGI: 9.02 µM
SR leukemia
  GI50: 3.65 µM
  TGI: > 100 µM
RXF 393 renal
  GI50: 2.64 µM
  TGI: 6.98 µM
NCI-H226 lung
  GI50: 10.9 µM
  TGI: 32.9 µM
UACC-62 melanoma
  GI50: 3.19 µM
  TGI: 17.9 µM
CAKI-1 renal
  GI50: 5.07 µM
  TGI: 27.1 µM
NCI-H460 lung
  GI50: 2.93 µM
  TGI: 11.2 µM
SK-MEL-28 melanoma
  GI50: 9.22 µM
  TGI: 31.6 µM
M14 melanoma
  GI50: 17.7 µM
  TGI: > 100 µM
MDA-MB-231 breast
  GI50: 2.04 µM
  TGI: 5.39 µM
PC-3 prostate
  GI50: 4.11 µM
  TGI: > 100 µM
SF-268 CNS
  GI50: 5.63 µM
  TGI: > 100 µM
SK-MEL-2 melanoma
  GI50: 14.9 µM
  TGI: 40.3 µM
SN12C renal
  GI50: 2.59 µM
  TGI: 8.56 µM
OVCAR-8 ovarian
  GI50: 2.7 µM
  TGI: 7.68 µM
DU-145 prostate
  GI50: 7.5 µM
  TGI: 30.3 µM
SW-620 colon
  GI50: 3.17 µM
  TGI: 23.6 µM
NCI-H522 lung
  GI50: 2.99 µM
  TGI: 9.88 µM
COLO 205 colon
  GI50: 4.88 µM
  TGI: > 100 µM
U251 CNS
  GI50: 1.98 µM
  TGI: 4.03 µM
NCI/ADR-RES ovarian
  GI50: 3.71 µM
  TGI: 38.5 µM
OVCAR-3 ovarian
  GI50: 4.08 µM
  TGI: 16.3 µM
HS 578T breast
  GI50: 3.65 µM
  TGI: 33.6 µM
NCI-H23 lung
  GI50: 3.21 µM
  TGI: 14.7 µM
